Source: patent publication US12692233B2, “Anthelmintic compounds comprising a pyridine structure” (Intervet Inc., priority 2020, dated 2026)

Legend:
[1] = target: T1, human Maxi K channel (BK channel) (Homo sapiens, UniProt Q12791); assay: Agonistic activity at the human Maxi K channel (BK channel), FLIPR membrane potential in CHO K1 cells; format: cell-based; settings: CHO K1 cells stably transfected with KCNMA1 and beta1 (KCNMB1) subunits, membrane potential dye
T1 construct: expressed in transfected cells; host or cells: CHO K1
T1 sequence (Q12791 1-1178 isoform Q12791-5): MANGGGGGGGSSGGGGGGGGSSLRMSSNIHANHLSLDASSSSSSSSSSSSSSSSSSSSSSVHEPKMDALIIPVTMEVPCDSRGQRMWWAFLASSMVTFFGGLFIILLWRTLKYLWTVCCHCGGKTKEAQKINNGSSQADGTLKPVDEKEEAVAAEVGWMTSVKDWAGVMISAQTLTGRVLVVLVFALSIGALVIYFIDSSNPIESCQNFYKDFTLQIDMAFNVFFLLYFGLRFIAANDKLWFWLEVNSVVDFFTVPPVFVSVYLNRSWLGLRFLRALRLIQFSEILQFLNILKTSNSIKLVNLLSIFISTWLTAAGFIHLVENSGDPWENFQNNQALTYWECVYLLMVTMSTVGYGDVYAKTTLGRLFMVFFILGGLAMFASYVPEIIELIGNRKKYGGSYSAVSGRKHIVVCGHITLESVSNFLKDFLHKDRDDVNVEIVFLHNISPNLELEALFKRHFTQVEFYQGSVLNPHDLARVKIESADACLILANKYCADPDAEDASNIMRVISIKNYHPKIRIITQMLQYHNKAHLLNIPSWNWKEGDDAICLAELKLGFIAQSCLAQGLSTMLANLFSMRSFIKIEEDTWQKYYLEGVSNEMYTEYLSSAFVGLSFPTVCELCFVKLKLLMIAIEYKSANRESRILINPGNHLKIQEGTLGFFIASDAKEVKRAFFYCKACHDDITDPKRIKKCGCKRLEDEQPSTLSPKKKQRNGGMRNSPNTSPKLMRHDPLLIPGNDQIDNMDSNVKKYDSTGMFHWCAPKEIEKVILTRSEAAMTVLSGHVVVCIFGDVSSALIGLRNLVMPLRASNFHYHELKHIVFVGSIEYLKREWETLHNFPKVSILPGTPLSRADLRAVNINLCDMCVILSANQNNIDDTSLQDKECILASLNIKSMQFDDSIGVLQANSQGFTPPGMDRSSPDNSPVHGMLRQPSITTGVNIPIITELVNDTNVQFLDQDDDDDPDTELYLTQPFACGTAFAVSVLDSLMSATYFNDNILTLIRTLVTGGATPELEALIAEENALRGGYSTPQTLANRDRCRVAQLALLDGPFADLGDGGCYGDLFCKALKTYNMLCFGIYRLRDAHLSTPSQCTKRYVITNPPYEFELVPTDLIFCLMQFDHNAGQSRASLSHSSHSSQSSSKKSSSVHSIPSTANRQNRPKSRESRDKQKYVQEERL
T1 sequence (Q16558 whole entry partner): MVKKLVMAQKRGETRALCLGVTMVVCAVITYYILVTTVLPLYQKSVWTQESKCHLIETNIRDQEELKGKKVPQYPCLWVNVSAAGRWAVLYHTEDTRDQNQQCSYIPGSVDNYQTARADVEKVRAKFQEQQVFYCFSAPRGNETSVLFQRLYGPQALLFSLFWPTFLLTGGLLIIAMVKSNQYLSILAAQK
Text: A CHO K1 cell line was stably transfected with the KCNMA1 (KCa1.1, U11058) and beta1 (KCNMB1) subunits of the human Maxi K channel (Ponte et al, Molecular Pharmacology 2012, 81(4), 567-577).
The complete measurement takes 150 s.

C. elegans Slo-1a = C. elegans Slo-1a (Caenorhabditis elegans, UniProt Q95V25); assay: Agonistic activity at C. elegans Slo-1a, FLIPR membrane potential in CHO K1 cells; settings: EC50 agonistic activity at C. elegans Slo-1a, CHO K1 cells stably transfected with slo-1a, membrane potential dye
Sequence of C. elegans Slo-1a (Q95V25 whole entry): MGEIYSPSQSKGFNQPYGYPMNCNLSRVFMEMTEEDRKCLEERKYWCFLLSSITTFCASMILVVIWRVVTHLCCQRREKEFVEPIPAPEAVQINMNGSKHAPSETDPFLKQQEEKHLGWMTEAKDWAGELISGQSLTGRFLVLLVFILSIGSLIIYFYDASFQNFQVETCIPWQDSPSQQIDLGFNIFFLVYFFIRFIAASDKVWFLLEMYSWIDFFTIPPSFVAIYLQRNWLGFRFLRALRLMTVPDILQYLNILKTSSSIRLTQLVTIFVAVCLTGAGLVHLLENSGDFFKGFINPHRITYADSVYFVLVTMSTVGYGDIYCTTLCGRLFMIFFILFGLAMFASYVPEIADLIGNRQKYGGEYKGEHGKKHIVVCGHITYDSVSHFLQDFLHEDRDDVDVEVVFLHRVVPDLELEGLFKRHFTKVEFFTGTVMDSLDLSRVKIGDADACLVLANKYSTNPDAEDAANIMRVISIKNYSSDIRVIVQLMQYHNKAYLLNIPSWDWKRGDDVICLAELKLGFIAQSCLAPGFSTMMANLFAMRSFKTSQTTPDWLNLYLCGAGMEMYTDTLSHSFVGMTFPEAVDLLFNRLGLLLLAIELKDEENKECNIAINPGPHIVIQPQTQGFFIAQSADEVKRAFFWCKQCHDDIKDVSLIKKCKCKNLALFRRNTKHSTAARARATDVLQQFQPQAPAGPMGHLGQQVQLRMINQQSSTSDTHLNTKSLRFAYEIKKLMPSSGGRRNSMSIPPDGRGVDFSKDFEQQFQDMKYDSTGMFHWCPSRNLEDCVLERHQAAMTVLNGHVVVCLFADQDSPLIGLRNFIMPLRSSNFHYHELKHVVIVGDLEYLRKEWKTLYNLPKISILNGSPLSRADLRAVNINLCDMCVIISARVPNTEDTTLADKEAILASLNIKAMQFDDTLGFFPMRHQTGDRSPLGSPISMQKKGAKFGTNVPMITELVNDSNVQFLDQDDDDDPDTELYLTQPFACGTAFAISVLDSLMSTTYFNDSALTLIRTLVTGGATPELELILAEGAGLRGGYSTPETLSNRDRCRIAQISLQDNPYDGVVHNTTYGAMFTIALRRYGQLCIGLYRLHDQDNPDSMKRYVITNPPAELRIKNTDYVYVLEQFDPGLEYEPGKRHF
Description: A CHO K1 cell line stably transfected with the Caenorhabditis elegans slo-1a (accession no Y51A2D.19a) was established. Cells were seeded in microtiter plates (black 384-well MTP, clear bottom) in a concentration of 10,000 cells/well in 25 μl medium and cultured for 20 to 24 hours at 37° C. and 5% CO2. After incubation, 25 μl of FMP-dye Blue-Tyrode's was added to each well and incubated at room temperature for 30 min. Ten minutes after addition of 12.5 μl compound solution, the plates are transferred to the FLIPR for measurement.
For the membrane potential measurements, the plates were placed in the FLIPR Penta (Molecular Devices). The baseline measurement of the fluorescence was stared for 20 sec (Exc. 510-545 nm, Emm. 565-625 nm). Potential channel opening measurement was started by addition of 25 μl of KCl-Tyrode (final assay concentration of the KCl-Tyrode: 70 mM KCl, 2 mM CaCl2, 1 mM MgCl2, 0.8 mM NaH2PO4, 5 mM Glucose, 28 mM Hepes, pH 7.4, including the voltage sensitive dye). The complete measurement takes 150 s.
EC50 values were determined in triplicate utilizing compound dilution series. The data were determined at least in two independent tests. The data were proceeded by using the ActivityBase XE Runner software (IDBS) for curve fitting and calculation of the half-maximal effective concentration.

| Compound | EC50 [1] [µM] | EC50 (C. elegans Slo-1a) [µM] |
| --- | --- | --- |
| O=C(N[C@H]1CCOc2ccccc21)c1cnc(Sc2cc(Cl)cc(Cl)c2)cc1N1CCOCC1 [Compound 3, (S)—N-(chroman-4-yl)-6-((3,5-dichlorophenyl)thio)-4-morpholinonicotinamide] | > 30 | < 1 |
| O=C(N[C@H]1CCOc2ccccc21)c1cnc(Oc2cc(Cl)cc(Cl)c2)cc1N1CCOCC1 [Compound 5] | > 30 | < 1 |
| O=C(N[C@H]1CCCc2ccccc21)c1cnc(Oc2cccc(Cl)c2Cl)cc1N1CCOCC1 [Compound 6] | > 30 | < 1 |
| O=C(N[C@H]1CCc2ccccc21)c1cnc(Oc2cccc(Cl)c2Cl)cc1N1CCOCC1 [Compound 7] | > 30 | < 1 |
| O=C(N[C@H]1CCCc2ccccc21)c1cnc(Oc2cc(Cl)cc(Cl)c2)cc1N1CCOCC1 [Compound 8] | > 30 | < 1 |
| O=C(N[C@H]1CCCc2ccccc21)c1cnc(Sc2cc(Cl)cc(Cl)c2)cc1N1CCOCC1 [Compound 9] | > 30 | < 1 |
| CN(C)c1cc(Sc2cc(Cl)cc(Cl)c2)ncc1C(=O)N[C@H]1CCOc2ccccc21 [Compound 13] | > 30 | – |
| O=C(N[C@H]1CCc2ccccc21)c1cnc(Oc2cc(Cl)cc(Cl)c2)cc1N1CCOCC1 [Compound 25, (S)-6-(3,5-dichlorophenoxy)-N-(2,3-dihydro-1H-inden-1-yl)-4-morpholinonicotinamide] | > 30 | – |
| CN(C)c1cc(Oc2cc(Cl)cc(Cl)c2)ncc1C(=O)Nc1csc2ccccc12 [Compound 38] | > 30 | – |
| CN(C)c1cc(Sc2cccc(Cl)c2Cl)ncc1C(=O)Nc1cccc2ccccc12 [Compound 43] | > 30 | – |
| CN(C)c1cc(Sc2cccc(Cl)c2Cl)ncc1C(=O)Nc1csc2ccccc12 [Compound 44] | > 30 | – |
| O=C(N[C@@H]1CCOc2ccccc21)c1cnc(Oc2cccc(Cl)c2Cl)cc1N1CCOCC1 [Compound 51] | > 30 | – |
| CCSc1cc(Sc2cccc(Cl)c2Cl)ncc1C(=O)N[C@H]1CCOc2ccccc21 [Compound 63] | > 30 | – |
| CCSc1cc(Sc2cccc(Cl)c2Cl)ncc1C(=O)N[C@H]1CCc2ccccc21 [Compound 64] | > 30 | – |
| CCOc1cc(Sc2cccc(Cl)c2Cl)ncc1C(=O)N[C@H]1CCCc2ccccc21 [Compound 70] | > 30 | – |
| CCSc1cc(Sc2cc(Cl)cc(Cl)c2)ncc1C(=O)N[C@H]1CCCc2ccccc21 [Compound 75] | > 30 | – |
| CCSc1cc(Oc2cccc(Cl)c2Cl)ncc1C(=O)N[C@H]1CCCc2ccccc21 [Compound 76] | > 30 | – |
| CCSc1cc(Oc2cccc(Cl)c2Cl)ncc1C(=O)N[C@H]1CCOc2ccccc21 [Compound 77] | > 30 | – |
| CCSc1cc(Oc2cccc(Cl)c2Cl)ncc1C(=O)N[C@H]1CCc2ccccc21 [Compound 78] | > 30 | – |
| CCSc1cc(Oc2cc(Cl)cc(Cl)c2)ncc1C(=O)N[C@H]1CCCc2ccccc21 [Compound 79] | > 30 | – |
| CCSc1cc(Oc2cc(Cl)cc(Cl)c2)ncc1C(=O)N[C@H]1CCc2ccccc21 [Compound 81] | > 30 | – |
| COc1cc(Oc2cc(Cl)cc(Cl)c2)ncc1C(=O)N[C@H]1CCc2ccccc21 [Compound 87] | > 30 | – |
| CCOc1cc(Oc2cc(Cl)cc(Cl)c2)ncc1C(=O)N[C@H]1CCOc2ccccc21 [Compound 89] | > 30 | – |
| CCOc1cc(Oc2cccc(Cl)c2Cl)ncc1C(=O)N[C@H]1CCCc2ccccc21 [Compound 91] | > 30 | – |
| CCOc1cc(Oc2cccc(Cl)c2Cl)ncc1C(=O)N[C@H]1CCc2ccccc21 [Compound 93] | > 30 | – |
| CCOc1cc(Oc2cc(Cl)cc(Cl)c2)ncc1C(=O)N[C@H]1CCCc2ccccc21 [Compound 98] | > 30 | – |
| CN(C)c1cc([S+]([O-])c2cc(Cl)cc(Cl)c2)ncc1C(=O)N[C@H]1CCc2ccccc21 (stereo partly drawn) [Compound 104, 6-((3,5-dichlorophenyl)sulfinyl)-N—((S)-2,3-dihydro-1H-inden-1-yl)-4-(dimethylamino)nicotinamide] | > 30 | – |
| CN(C)c1cc(S(=O)(=O)c2cc(Cl)cc(Cl)c2)ncc1C(=O)N[C@H]1CCc2ccccc21 [Compound 105] | > 30 | – |
